# Experimental data as given in patent US12655125B2 (SIRONAX LTD., priority 2020, dated 2026).
# System: HT-29 cells
# Assay: HT29 Cells 0FBS Assay In Vitro (TNF-α/SMAC mimetic/zVAD-FMK induced necroptosis, CellTiter-Glo cell viability)
# Assay type: cell-based
# Settings: Homo sapiens; HT-29 cells, FBS free medium, TNF-α (10 ng/ml), SMAC mimetic (6 uM), zVAD-FMK (10 μM), 20 hours; geometric mean EC50; read-out: Cell activity (EC50) of Compounds 1-116
# How it was run: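 HT-29 cells (5,000/well, seeded overnight) in serum-free McCoy's 5A were stimulated with TNF-α 10 ng/ml, SMAC mimetic 6 μM and zVAD-FMK 10 μM to induce necroptosis. Compound added as 10-point 3-fold series for 20 h at 37° C. CellTiter-Glo luminescence gives viability; EC50 is geometric mean of duplicate dose-responses.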
row,SMILES,EC50
1,"Cc1nscc1-c1cc(OC2CN(C(=O)N3N=CC[C@H]3c3cc(F)cc(F)c3)C2)c(F)cn1 [compound 17, (S)-(5-(3,5-difluorophenyl)-4,5-dihydro-1H-pyrazol-1-yl)(3-((5-fluoro-2-(3-methylisothiazol-4-yl)pyridin-4-yl)oxy)azetidin-1-yl)methanone]",0.1 to 100 nM
2,"Cn1ncc(C(=O)N2CCCCC2)c1-c1cc(OC2CN(C(=O)N3N=CC[C@H]3c3cc(F)cc(F)c3)C2)c(F)cn1 [compound 76, (S)-(5-(3,5-difluorophenyl)-4,5-dihydro-1H-pyrazol-1-yl)(3-((5-fluoro-2-(1-methyl-4-(piperidine-1-carbonyl)-1H-pyrazol-5-yl)pyridin-4-yl)oxy)azetidin-1-yl)methanone]",1000 to 10000 nM
3,"Cc1cc(-c2ncc(F)c(OC3CN(C(=O)N4N=CC[C@H]4c4cc(F)cc(F)c4)C3)n2)n(C)n1 [compound 35, (S)-(5-(3,5-difluorophenyl)-4,5-dihydro-1H-pyrazol-1-yl)(3-((2-(1,3-dimethyl-1H-pyrazol-5-yl)-5-fluoropyrimidin-4-yl)oxy)azetidin-1-yl)methanone]",0.1 to 100 nM
4,"Cc1nn(-c2cc(OC3CN(C(=O)N4N=CC[C@H]4c4cc(F)cc(F)c4)C3)c(F)cn2)c(C)c1[N+](=O)[O-] [compound 108, (S)-(5-(3,5-difluorophenyl)-4,5-dihydro-1H-pyrazol-1-yl)(3-((2-(3,5-dimethyl-4-nitro-1H-pyrazol-1-yl)-5-fluoropyridin-4-yl)oxy)azetidin-1-yl)methanone]",0.1 to 100 nM
5,"COCCOc1cnn(C)c1-c1cc(OC2CN(C(=O)N3N=CC[C@H]3c3cc(F)cc(F)c3)C2)c(F)cn1 [compound 52, (S)-(5-(3,5-difluorophenyl)-4,5-dihydro-1H-pyrazol-1-yl)(3-((5-fluoro-2-(4-(2-methoxyethoxy)-1-methyl-1H-pyrazol-5-yl)pyridin-4-yl)oxy)azetidin-1-yl)methanone]",0.1 to 100 nM
6,"Cn1nccc1-c1ncc(F)c(OC2CN(C(=O)N3N=CC[C@H]3c3cc(F)cc(F)c3)C2)n1 [compound 2, (S)-(5-(3,5-difluorophenyl)-4,5-dihydro-1H-pyrazol-1-yl)(3-((5-fluoro-2-(1-methyl-1H-pyrazol-5-yl)pyrimidin-4-yl)oxy)azetidin-1-yl)methanone]",0.1 to 100 nM
7,"Cc1nscc1-c1ccc(F)c(OC2CN(C(=O)N3N=CC[C@H]3c3cc(F)cc(F)c3)C2)n1 [compound 16, (S)-(5-(3,5-difluorophenyl)-4,5-dihydro-1H-pyrazol-1-yl)(3-((3-fluoro-6-(3-methylisothiazol-4-yl)pyridin-2-yl)oxy)azetidin-1-yl)methanone]",0.1 to 100 nM
8,"Cn1cncc1-c1cc(OC2CN(C(=O)N3N=CC[C@H]3c3cc(F)cc(F)c3)C2)c(F)cn1 [compound 7, (S)-(5-(3,5-difluorophenyl)-4,5-dihydro-1H-pyrazol-1-yl)(3-((5-fluoro-2-(1-methyl-1H-imidazol-5-yl)pyridin-4-yl)oxy)azetidin-1-yl)methanone]",0.1 to 100 nM
9,"CN(C)CCNC(=O)c1cnn(C)c1-c1cc(OC2CN(C(=O)N3N=CC[C@H]3c3cc(F)cc(F)c3)C2)c(F)cn1 [compound 69, (S)-5-(4-((1-(5-(3,5-difluorophenyl)-4,5-dihydro-1H-pyrazole-1-carbonyl)azetidin-3-yl)oxy)-5-fluoropyridin-2-yl)-N-(2-(dimethylamino)ethyl)-1-methyl-1H-pyrazole-4-carboxamide]",100 to 1000 nM
10,"Cc1nn(C)cc1-c1ncc(F)c(OC2CN(C(=O)N3N=CC[C@H]3c3cc(F)cc(F)c3)C2)n1 [compound 37, (S)-(5-(3,5-difluorophenyl)-4,5-dihydro-1H-pyrazol-1-yl)(3-((2-(1,3-dimethyl-1H-pyrazol-4-yl)-5-fluoropyrimidin-4-yl)oxy)azetidin-1-yl)methanone]",0.1 to 100 nM
11,"Cc1cnn(C)c1-c1ncc(F)c(OC2CN(C(=O)N3N=CC[C@H]3c3cc(F)cc(F)c3)C2)n1 [compound 42, (S)-(5-(3,5-difluorophenyl)-4,5-dihydro-1H-pyrazol-1-yl)(3-((2-(1,4-dimethyl-1H-pyrazol-5-yl)-5-fluoropyrimidin-4-yl)oxy)azetidin-1-yl)methanone]",0.1 to 100 nM

# Same assay, conditions: Homo sapiens; HT-29 cells, FBS free medium, TNF-α (10 ng/ml), SMAC mimetic (6 uM), zVAD-FMK (10 μM), 20 hours; geometric mean EC50; read-out: Cell activity (EC50) of Compounds 117-281
row,SMILES,EC50
1,"Cc1nn(-c2cc(OC3CN(C(=O)N4N=CC[C@H]4c4cc(F)cc(F)c4)C3)c(F)cn2)c(C)c1C(=O)NC1CCOCC1 [compound 216, (S)-1-(4-((1-(5-(3,5-difluorophenyl)-4,5-dihydro-1H-pyrazole-1-carbonyl)azetidin-3-yl)oxy)-5-fluoropyridin-2-yl)-3,5-dimethyl-N-(tetrahydro-2H-pyran-4-yl)-1H-pyrazole-4-carboxamide]",0.1 to 100 nM
2,"Cc1c(-c2cc(OC3CN(C(=O)N4N=CC[C@H]4c4cc(F)cc(F)c4)C3)c(F)cn2)nn(C)c1C(=O)NC1CC(O)C1 (stereo partly drawn) [compound 263, (S)-3-(4-((1-(5-(3,5-difluorophenyl)-4,5-dihydro-1H-pyrazole-1-carbonyl)azetidin-3-yl)oxy)-5-fluoropyridin-2-yl)-N-(3-hydroxycyclobutyl)-1,4-dimethyl-1H-pyrazole-5-carboxamide]",0.1 to 100 nM
3,"CC(C)NC(=O)Nc1cnn(C)c1-c1cc(OC2CN(C(=O)N3N=CC[C@H]3c3cc(F)cc(F)c3)C2)c(F)cn1 [compound 141, (S)-1-(5-(4-((1-(5-(3,5-difluorophenyl)-4,5-dihydro-1H-pyrazole-1-carbonyl)azetidin-3-yl)oxy)-5-fluoropyridin-2-yl)-1-methyl-1H-pyrazol-4-yl)-3-isopropylurea]",0.1 to 100 nM
4,"[2H]C1(c2cc(F)cc(F)c2)CC=NN1C(=O)N1CC(Oc2cc(-n3nc(C)c(C(N)=O)c3C)ncc2F)C1 (stereo not shown) [compound 277, 1-(4-((1-(5-(3,5-difluorophenyl)-4,5-dihydro-1H-pyrazole-1-carbonyl-5-d)azetidin-3-yl)oxy)-5-fluoropyridin-2-yl)-3,5-dimethyl-1H-pyrazole-4-carboxamide]",0.1 to 100 nM
5,"Cc1nn(-c2cc(OC3CN(C(=O)N4N=CC[C@H]4c4cc(F)cc(F)c4)C3)c(F)cn2)c(C)c1C(=O)NC1COC1 [compound 217, (S)-1-(4-((1-(5-(3,5-difluorophenyl)-4,5-dihydro-1H-pyrazole-1-carbonyl)azetidin-3-yl)oxy)-5-fluoropyridin-2-yl)-3,5-dimethyl-N-(oxetan-3-yl)-1H-pyrazole-4-carboxamide]",0.1 to 100 nM
6,"Cc1onc(N)c1-c1cc(OC2CN(C(=O)N3N=CC[C@H]3c3cc(F)cc(F)c3)C2)c(F)cn1 [compound 228, (S)-(3-((2-(3-amino-5-methylisoxazol-4-yl)-5-fluoropyridin-4-yl)oxy)azetidin-1-yl)(5-(3,5-difluorophenyl)-4,5-dihydro-1H-pyrazol-1-yl)methanone]",0.1 to 100 nM
7,"Cn1nc(CF)nc1-c1cc(OC2CN(C(=O)N3N=CC[C@H]3c3cc(F)cc(F)c3)C2)c(F)cn1 [compound 201, (S)-(5-(3,5-difluorophenyl)-4,5-dihydro-1H-pyrazol-1-yl)(3-((5-fluoro-2-(3-(fluoromethyl)-1-methyl-1H-1,2,4-triazol-5-yl)pyridin-4-yl)oxy)azetidin-1-yl)methanone]",0.1 to 100 nM
8,"Cn1nc(C#N)cc1-c1cc(OC2CN(C(=O)N3N=CC[C@H]3c3cc(F)cc(F)c3)C2)c(F)cn1 [compound 173, (S)-5-(4-((1-(5-(3,5-difluorophenyl)-4,5-dihydro-1H-pyrazole-1-carbonyl)azetidin-3-yl)oxy)-5-fluoropyridin-2-yl)-1-methyl-11H-pyrazole-3-carbonitrile]",0.1 to 100 nM
9,"Cc1nc(CO)sc1-c1cc(OC2CN(C(=O)N3N=CC[C@H]3c3cc(F)cc(F)c3)C2)c(F)cn1 [compound 180, (S)-(5-(3,5-difluorophenyl)-4,5-dihydro-1H-pyrazol-1-yl)(3-((5-fluoro-2-(2-(hydroxymethyl)-4-methylthiazol-5-yl)pyridin-4-yl)oxy)azetidin-1-yl)methanone]",0.1 to 100 nM
10,"Cc1nc(C#N)sc1-c1cc(OC2CN(C(=O)N3N=CC[C@H]3c3cc(F)cc(F)c3)C2)c(F)cn1 [compound 188, (S)-5-(4-((1-(5-(3,5-difluorophenyl)-4,5-dihydro-1H-pyrazole-1-carbonyl)azetidin-3-yl)oxy)-5-fluoropyridin-2-yl)-4-methylthiazole-2-carbonitrile]",0.1 to 100 nM
11,"Cc1c(NCCO)nn(C)c1-c1cc(OC2CN(C(=O)N3N=CC[C@H]3c3cc(F)cc(F)c3)C2)c(F)cn1 [compound 212, (S)-(5-(3,5-difluorophenyl)-4,5-dihydro-1H-pyrazol-1-yl)(3-((5-fluoro-2-(3-((2-hydroxyethyl)amino)-1,4-dimethyl-1H-pyrazol-5-yl)pyridin-4-yl)oxy)azetidin-1-yl)methanone]",0.1 to 100 nM
12,"Cc1c(-c2cc(OC3CN(C(=O)N4N=CC[C@H]4c4cc(F)cc(F)c4)C3)c(F)cn2)nn(C)c1C(=O)NC1CCOCC1 [compound 247, (S)-3-(4-((1-(5-(3,5-difluorophenyl)-4,5-dihydro-1H-pyrazole-1-carbonyl)azetidin-3-yl)oxy)-5-fluoropyridin-2-yl)-1,4-dimethyl-N-(tetrahydro-2H-pyran-4-yl)-1H-pyrazole-5-carboxamide]",0.1 to 100 nM
13,"Cc1c(-c2cc(OC3CN(C(=O)N4N=CC[C@H]4c4cc(F)cc(F)c4)C3)c(F)cn2)c(CO)nn1CC1CC1 [compound 168, (S)-(3-((2-(1-(cyclopropylmethyl)-3-(hydroxymethyl)-5-methyl-1H-pyrazol-4-yl)-5-fluoropyridin-4-yl)oxy)azetidin-1-yl)(5-(3,5-difluorophenyl)-4,5-dihydro-1H-pyrazol-1-yl)methanone]",0.1 to 100 nM
14,"Cc1cnn(C)c1-c1ccc(F)c(OC2CN(C(=O)N3N=CC[C@H]3c3cc(F)cc(F)c3)C2)n1 [compound 185, (S)-(5-(3,5-difluorophenyl)-4,5-dihydro-1H-pyrazol-1-yl)(3-((6-(1,4-dimethyl-1H-pyrazol-5-yl)-3-fluoropyridin-2-yl)oxy)azetidin-1-yl)methanone]",0.1 to 100 nM
